The values below come from US9561231B2 (AbbVie Inc., priority 2012, dated 2017).

Each structure is given as a SMILES string. Marks after values point to notes of the source that are not given here.

Test [1] deals with T1, first (BD1: amino acids K57-E168) bromodomain of BRD4 (Homo sapiens, UniProt O60885).
T1 construct: His-tagged first (BD1: amino acids K57-E168)
Kind of test: TR-FRET bromodomain binding assay, BRD4 BD1. To be noted: TR-FRET assay protocol (A-G, compound concentration range); Ki calculated from IC50, probe Kd and probe concentration; read-out: TR-FRET Binding Ki: BRD4 (BDI_K57-E168). In outline:
(§1)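 His-tagged BRD4 BD1 (K57-E168) or BD2 ([…]) displacing an Alexa647-labelled BET-inhibitor probe in 20 mM sodium phosphate pH 6.0, 50 mM NaCl, 1 mM EDTA, 0.01% Triton X-100, 1 mM DTT.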

The target of test [2] is T2, second (BD2: amino acids E352-E168) bromodomain of BRD4 (Homo sapiens, UniProt O60885).
T2 construct: protocol
Kind of test: TR-FRET bromodomain binding assay, BRD4 BD2. To be noted: TR-FRET assay protocol (A-G, compound concentration range); Ki calculated from IC50, probe Kd and probe concentration; read-out: TR-FRET Binding Ki: BRD4 (BDII_E352-M457). The procedure, abridged: as §1

The test system of test [3] is breast cancer cell line MX-1. Kind of test: MX-1 cell line proliferation assay (3-day). The conditions noted are these: Homo sapiens, MX1; MX-1 cells, 72 h incubation, Cell Titer Glo; read-out: Cellular proliferation: EC50. The test is classed as cell-based. In outline: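 MX-1 cells in RPMI/10% FBS, plated 5000/well overnight, then exposed to compound at final 3 to 0.0001 μM (3-fold series) for 3 days at 37° C. Cell Titer Glo luminescence normalized to DMSO-treated cells; EC50 from sigmoidal curve fit.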
For orientation: Cellular ATP, detected with luciferase, serves as a proxy for viable cell number.

Test [4] has as its system MV4-11 human AML xenograft. Kind of test: Xenograft tumor growth inhibition assay: MV4-11. The test is classed as in vivo, SCID-beige female mice. To be noted: QDx14, tumor volumes study day 31.
Procedure: (§2) The effect of example compounds to inhibit growth of human tumor xenografts implanted in mice was evaluated. Briefly, cells obtained from culture (MV4-11 and OPM-2) or tumor brie (MX-1) were suspended in cell culture medium (MEM, Suspension, no Calcium, no Glutamine, Life Technologies Corporation) containing Matrigel (phenol red free, Becton Dickinson Biosciences Discovery Labware) and inoculated subcutaneously (approximately 5 million per site) into the right hind flank of SCID-beige (MV4-11 and OPM-2) or SCID (MX-1) female mice (Charles Rivers Labs) on study day 0.
(§3) Tumors were measured with a pair of calipers twice a week starting at the time of size match and tumor volumes were calculated according to the formula V=L×W^2/2 (V: volume, mm^3; L: length, mm. W: width, mm). Tumor volume was measured throughout the treatment period or until the mean tumor volume in each group reached an endpoint of >1000 mm^3.
For test [5], the system named is OPM-2 human multiple myeloma cancer xenograft. Kind of test: Xenograft tumor growth inhibition assay: OPM-2. Type of test: in vivo, SCID-beige female mice.
Procedure: as §2, §3
Test [6] has as its system MX-1 human breast cancer xenograft. Kind of test: Xenograft tumor growth inhibition assay: MX-1. The conditions noted are these: for % TGD (tumor growth delay): QDx14, endpoint 1000 mm^3; for % TGI (tumor growth inhibition): QDx14, tumor volumes study day 27.
Procedure: as §2, §3
In test [7] the test system is LPS induced IL-6 production. Kind of test: LPS (lipopolysaccharide) induced IL-6 production mouse assay. The conditions noted are these: 1 h before LPS 2.5 mg/kg i.p., serum IL-6 2 h after LPS, p<0.05.
Procedure: Severe combined immunodeficient female mice (5 per group) received an intraperitoneal challenge of lipopolysaccharide (2.5 mg/kg, L2630 E. coli 0111:B4) one hour after oral administration of compounds. Mice were euthanized 2 hours after lipopolysaccharide injection, blood was removed by cardiac puncture, and then the serum harvested from the blood samples was frozen at −80° C. On the day of the assay the serum samples were brought to room temperature and then diluted 1:20 in phosphate-buffered saline containing 2% bovine serum albumin. Interleukin-6 measurements were performed using a cytokine assay from Meso Scale Discovery (Gaithersburg, Md.) for mouse serum analysis according to the manufacturer's protocol and read on a SECTOR Imager 6000 (Meso Scale Discovery, Gaithersburg, Md.) instrument. Statistical analysis was performed using Prism software (version 5.0) incorporating Dunnett's one way ANOVA. The IL-6 mean and standard deviation of the group of vehicle treated animals were compared with the IL-6 mean and standard deviation of the group treated with drug. A p value <0.05 means that there is less than a 5% probability that the mean values in the two groups are equal.
Setting [8] is: 3 mg/kg/day PO, QDx21, endpoint 1000 mm^3.

One may read the Ki as the dissociation constant of the complex between target and ligand, obtained from inhibition or displacement. With `Cn1cc(-c2cc(NS(C)(=O)=O)ccc2Oc2ccc(F)cc2F)ccc1=O` [Example 240, N-[4-(2,4-difluorophenoxy)-3-(1-methyl-6-oxo-1,6-dihydropyridin-3-yl)phenyl]methanesulfonamide], the Ki is 28.2 nM in test [1] and 107 nM in test [2]. Also, in test [3], the EC50 is 285 nM. Moreover, the “% TGI (tumor growth inhibition)” value in test [4] (3 mg/kg/day PO) is 0%; in test [4] (10 mg/kg/day PO), 23%; in test [4] (30 mg/kg/day PO) it was 65^b** %; in test [5] (30 mg/kg/day PO, QDx14), 36** %; in test [6] (3 mg/kg/day PO), 40* %; in test [6] (10 mg/kg/day PO), 55*** %. Moreover, the “% TGI (tumor growth inhibition)” value in test [6] (30 mg/kg/day PO) is reported as 61*** %. Also, the “% TGD (tumor growth delay)” value in test [5] (30 mg/kg/day PO, QDx14, endpoint 1000 mm^3) was 113** %; in test [6] (3 mg/kg/day PO), 20%; in test [6] (10 mg/kg/day PO), 35** %; in test [6] (30 mg/kg/day PO), 51*** %. In test [7] (30 mg/kg oral), the “Inhibition of LPS induced IL-6 production, % inhibition” value (“Inhibition … % inhibition” below) is 72.6 @ 30 mg/kg %.
As to `COc1cc(=O)n(C)cc1-c1cc(NS(C)(=O)=O)ccc1Oc1ccc(F)cc1F` [Example 270, N-[4-(2,4-difluorophenoxy)-3-(4-methoxy-1-methyl-6-oxo-1,6-dihydropyridin-3-yl)phenyl]methanesulfonamide], the inhibition constant (Ki) in test [1] is 25.6 nM; in test [2], 10.9 nM. In addition, in test [3], the EC50 worked out at 138 nM. For the same compound, the “% TGI (tumor growth inhibition)” value in test [5] (3 mg/kg/day PO, QDx21) is recorded as 42* %; in test [5] (10 mg/kg/day PO, QDx21) it was 60%. The “% TGD (tumor growth delay)” value was 17% in test [5] (setting [8]) and 59** % in test [5] (10 mg/kg/day PO, QDx21, endpoint 1000 mm^3). Besides, the “Inhibition … % inhibition” value in test [7] (3 mg/kg oral) is 68.8 @ 3 mg/kg %.
Turning to `CCS(=O)(=O)Nc1ccc(Oc2ccc(F)cc2F)c(-c2cn(C)c(=O)cc2OC)c1` [Example 271, N-[4-(2,4-difluorophenoxy)-3-(4-methoxy-1-methyl-6-oxo-1,6-dihydropyridin-3-yl)phenyl]ethanesulfonamide], the Ki is 9.76 nM in test [1] and 1.55 nM in test [2]. The EC50 in test [3] is 47.3 nM. For the same compound, the “% TGI (tumor growth inhibition)” value in test [5] (1 mg/kg/day PO, QDx21) was 66* %; in test [5] (3 mg/kg/day PO, QDx21) it was 73* %. Also, the “% TGD (tumor growth delay)” value in test [5] (1 mg/kg/day PO, QDx21, endpoint 1000 mm^3) is reported as 51*** %; in test [5] (setting [8]), 93*** %. For the same compound, the “Inhibition … % inhibition” value in test [7] (3 mg/kg oral) is reported as 76.9 @ 3 mg/kg %.
